Where a SMILES comes first, the peptide text is derived from it. Bridges are numbered along the chain shown (N, C = ends). [ ]: non-standard residue; d: D form. The star is where a group is joined. Phe(3-CF3) = N[C@@H](Cc1cccc(C(F)(F)F)c1)C(=O)O; Ala(morpholin-4-yl) = N[C@@H](CN1CCOCC1)C(=O)O; Phe(4-COOH) = N[C@@H](Cc1ccc(C(=O)O)cc1)C(=O)O; Tyr(Ph) = N[C@@H](Cc1ccc(Oc2ccccc2)cc1)C(=O)O; Bip = N[C@@H](Cc1ccc(-c2ccccc2)cc1)C(=O)O; Phe(3-Me) = Cc1cccc(C[C@H](N)C(=O)O)c1; Val(3-OH) = CC(C)(O)[C@H](N)C(=O)O; Cha = N[C@@H](CC1CCCCC1)C(=O)O; Carboxymethyl = O=C(O)C*; Nle = CCCC[C@H](N)C(=O)O; Orn = NCCC[C@H](N)C(=O)O; Dab = NCC[C@H](N)C(=O)O; X1 = C1CCC(*)CC1

The test deals with T1, human PD-1 / PD-L1-Ig binding on Jurkat cell line over-expressing human PD-1 (Jurkat-PD-1) (Homo sapiens, UniProt Q15116).
T1 construct: expressed in transfected cells; host or cells: Jurkat
T1 sequence (Q15116 25-288): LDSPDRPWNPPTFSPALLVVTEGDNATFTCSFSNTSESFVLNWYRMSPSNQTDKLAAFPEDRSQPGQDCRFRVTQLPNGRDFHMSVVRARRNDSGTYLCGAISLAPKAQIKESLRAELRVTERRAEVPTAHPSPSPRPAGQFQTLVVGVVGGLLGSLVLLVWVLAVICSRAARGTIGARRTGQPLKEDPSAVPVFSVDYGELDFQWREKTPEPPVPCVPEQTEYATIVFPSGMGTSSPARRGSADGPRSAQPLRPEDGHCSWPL
The test can be described thus: Jurkat-PD-1 Cell Binding High-Content Screening Assay (CBA). The format is cell-based. The following applies: Jurkat-PD-1 cells, PE-labeled PD-L1-Ig 20 nM final; read-out: Jurkat HPD1_PDL1 IC50. The procedure, abridged:
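Compounds were preincubated with Jurkat-hPD-1 cells in DMEM plus 10% fetal calf serum for 2 h at 37° C. Phycoerythrin-labeled PD-L1-Ig (20 nM final) was then added for 1 hour. Cells were fixed in 4% paraformaldehyde with Hoechst 33342, and bound fluorescence was quantified by high-content imaging.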
`CC(C)C[C@H]1NC(=O)[C@H](CCCN)NC(=O)[C@H](Cc2ccc(C(=O)O)cc2)NC(=O)[C@H](Cc2ccc(-c3ccccc3)cc2)NC(=O)[C@H](Cc2ccc(C(=O)O)cc2)NC(=O)[C@H](Cc2cccc(C(F)(F)F)c2)NC(=O)[C@H](CC(N)=O)NC(=O)[C@H](Cc2ccc(C(=O)O)cc2)NC(=O)[C@H](CN2CCOCC2)NC(=O)CSC[C@@H](C(=O)N[C@@H](CCN)C(N)=O)NC(=O)[C@H](CO)NC(=O)[C@H](C(C)(C)O)NC(=O)[C@H](CC2CCCCC2)NC(=O)[C@H](CCN)NC1=O` [Example 2719] ({CH2CO}-[Ala(morpholin-4-yl)][Phe(4-COOH)]N[Phe(3-CF3)][Phe(4-COOH)][Bip][Phe(4-COOH)][Orn][dL][Dab][Cha][Val(3-OH)]SC[Dab]-NH2; thioether N-14): the IC50 was 43.9 nM.

`Cc1cccc(C[C@@H]2NC(=O)[C@H](CC(N)=O)NC(=O)[C@H](Cc3ccc(C(=O)O)cc3)NC(=O)[C@H](CCN)NC(=O)CSC[C@@H](C(=O)N[C@@H](CCN)C(N)=O)NC(=O)[C@H](CO)NC(=O)[C@H](C(C)(C)O)NC(=O)[C@H](CC3CCCCC3)NC(=O)[C@H](CCN)NC(=O)[C@@H](CC(C)C)NC(=O)[C@H](CCCN)NC(=O)[C@H](Cc3ccc(C(=O)O)cc3)NC(=O)[C@H](Cc3ccc(-c4ccccc4)cc3)NC(=O)[C@H](Cc3ccc(C(=O)O)cc3)NC2=O)c1` [Example 2720] ({CH2CO}-[Dab][Phe(4-COOH)]N[Phe(3-Me)][Phe(4-COOH)][Bip][Phe(4-COOH)][Orn][dL][Dab][Cha][Val(3-OH)]SC[Dab]-NH2; thioether N-14): the IC50 was 101 nM.

With `Cc1cccc(C[C@@H]2NC(=O)[C@H](CC(N)=O)NC(=O)[C@H](Cc3ccc(C(=O)O)cc3)NC(=O)[C@H](CC(C)C)NC(=O)CSC[C@@H](C(=O)N[C@@H](CCN)C(N)=O)NC(=O)[C@H](CCC(=O)O)NC(=O)[C@H](C(C)C)NC(=O)[C@H](CC3CCCCC3)NC(=O)[C@H](CCN)NC(=O)[C@@H](CC(C)C)NC(=O)[C@H](CCCN)NC(=O)[C@H](Cc3ccc(C(=O)O)cc3)NC(=O)[C@H](Cc3ccc(-c4ccccc4)cc3)NC(=O)[C@H](Cc3ccc(C(=O)O)cc3)NC2=O)c1` [Example 2721] ({CH2CO}-L[Phe(4-COOH)]N[Phe(3-Me)][Phe(4-COOH)][Bip][Phe(4-COOH)][Orn][dL][Dab][Cha]VEC[Dab]-NH2; thioether N-14), the IC50 was 190 nM.

With `CC(C)C[C@H]1NC(=O)[C@H](CCCN)NC(=O)[C@H](Cc2ccc(C(=O)O)cc2)NC(=O)[C@H](Cc2ccc(-c3ccccc3)cc2)NC(=O)[C@H](Cc2ccc(C(=O)O)cc2)NC(=O)[C@H](Cc2cccc(C(F)(F)F)c2)NC(=O)[C@H](CC(N)=O)NC(=O)[C@H](Cc2ccc(C(=O)O)cc2)NC(=O)[C@H](CN2CCOCC2)NC(=O)CSC[C@@H](C(=O)N[C@@H](CCN)C(N)=O)NC(=O)[C@H](CCC(=O)O)NC(=O)[C@H](C(C)C)NC(=O)[C@H](CC2CCCCC2)NC(=O)[C@H](CCN)NC1=O` [Example 2722] ({CH2CO}-[Ala(morpholin-4-yl)][Phe(4-COOH)]N[Phe(3-CF3)][Phe(4-COOH)][Bip][Phe(4-COOH)][Orn][dL][Dab][Cha]VEC[Dab]-NH2; thioether N-14), the IC50 came to 105 nM.

Regarding `CCCC[C@@H]1NC(=O)CSC[C@@H](C(=O)N[C@@H](CCN)C(N)=O)NC(=O)[C@H](CCC(=O)O)NC(=O)[C@H](C(C)C)NC(=O)[C@H](CC2CCCCC2)NC(=O)[C@H](CCN)NC(=O)[C@@H](CC(C)C)NC(=O)[C@H](CCCN)NC(=O)[C@H](Cc2ccc(C(=O)O)cc2)NC(=O)[C@H](Cc2ccc(-c3ccccc3)cc2)NC(=O)[C@H](Cc2ccc(C(=O)O)cc2)NC(=O)[C@H](Cc2cccc(C)c2)NC(=O)[C@H](CC(N)=O)NC(=O)[C@H](Cc2ccc(OCC(=O)O)cc2)NC1=O` [Example 2723] ({CH2CO}-[Nle]Y(Carboxymethyl)N[Phe(3-Me)][Phe(4-COOH)][Bip][Phe(4-COOH)][Orn][dL][Dab][Cha]VEC[Dab]-NH2; thioether N-14), the half-maximal inhibitory concentration (IC50) turned out to be 200 nM.

Consider `CC(C)C[C@H]1NC(=O)[C@H](CCCN)NC(=O)[C@H](Cc2ccc(OCC(=O)O)cc2)NC(=O)[C@H](Cc2ccc(-c3ccccc3)cc2)NC(=O)[C@H](Cc2ccc(C(=O)O)cc2)NC(=O)[C@H](Cc2cccc(C(F)(F)F)c2)NC(=O)[C@H](CC(N)=O)NC(=O)[C@H](Cc2ccc(OCC(=O)O)cc2)NC(=O)[C@H](CN2CCOCC2)NC(=O)CSC[C@@H](C(=O)N[C@@H](CCN)C(N)=O)NC(=O)[C@H](CO)NC(=O)[C@H](C(C)C)NC(=O)[C@H](CC2CCCCC2)NC(=O)[C@H](CCN)NC1=O` [Example 2724] ({CH2CO}-[Ala(morpholin-4-yl)]Y(Carboxymethyl)N[Phe(3-CF3)][Phe(4-COOH)][Bip]Y(Carboxymethyl)[Orn][dL][Dab][Cha]VSC[Dab]-NH2; thioether N-14), for which the IC50 was determined as 35.3 nM.

Consider `Cc1cccc(C[C@@H]2NC(=O)[C@H](CC(N)=O)NC(=O)[C@H](Cc3ccc(OCC(=O)O)cc3)NC(=O)[C@H](CN3CCOCC3)NC(=O)CSC[C@@H](C(=O)N[C@@H](CCN)C(N)=O)NC(=O)[C@H](CCCN)NC(=O)[C@H](C(C)C)NC(=O)[C@H](CC3CCCCC3)NC(=O)[C@H](CCN)NC(=O)[C@@H](CC(C)C)NC(=O)[C@H](CCCN)NC(=O)[C@H](CCCN)NC(=O)[C@H](Cc3ccc(-c4ccccc4)cc3)NC(=O)[C@H](Cc3ccc(C(=O)O)cc3)NC2=O)c1` [Example 2725] ({CH2CO}-[Ala(morpholin-4-yl)]Y(Carboxymethyl)N[Phe(3-Me)][Phe(4-COOH)][Bip][Orn][Orn][dL][Dab][Cha]V[Orn]C[Dab]-NH2; thioether N-14), for which the IC50 amounted to 48.1 nM.

For the molecule `CC(C)C[C@H]1NC(=O)[C@H](CCCN)NC(=O)[C@H](CCCN)NC(=O)[C@H](Cc2ccc(-c3ccccc3)cc2)NC(=O)[C@H](Cc2ccc(C(=O)O)cc2)NC(=O)[C@H](Cc2cccc(C(F)(F)F)c2)NC(=O)[C@H](CC(N)=O)NC(=O)[C@H](Cc2ccc(OCC(=O)O)cc2)NC(=O)[C@H](CN2CCOCC2)NC(=O)CSC[C@@H](C(=O)N[C@@H](CCN)C(N)=O)NC(=O)[C@H](CCCN)NC(=O)[C@H](C(C)C)NC(=O)[C@H](CC2CCCCC2)NC(=O)[C@H](CCN)NC1=O` [Example 2726] ({CH2CO}-[Ala(morpholin-4-yl)]Y(Carboxymethyl)N[Phe(3-CF3)][Phe(4-COOH)][Bip][Orn][Orn][dL][Dab][Cha]V[Orn]C[Dab]-NH2; thioether N-14), the IC50 stood at 65.5 nM.

In the case of `Cc1cccc(C[C@@H]2NC(=O)[C@H](CC(N)=O)NC(=O)[C@H](Cc3ccc(C(=O)O)cc3)NC(=O)[C@H](CN3CCOCC3)NC(=O)CSC[C@@H](C(=O)N[C@@H](CCN)C(N)=O)NC(=O)[C@H](CCCN)NC(=O)[C@H](C(C)C)NC(=O)[C@H](CC3CCCCC3)NC(=O)[C@H](CCN)NC(=O)[C@@H](CC(C)C)NC(=O)[C@H](CCCN)NC(=O)[C@H](CCCN)NC(=O)[C@H](Cc3ccc(-c4ccccc4)cc3)NC(=O)[C@H](Cc3ccc(C(=O)O)cc3)NC2=O)c1` [Example 2727] ({CH2CO}-[Ala(morpholin-4-yl)][Phe(4-COOH)]N[Phe(3-Me)][Phe(4-COOH)][Bip][Orn][Orn][dL][Dab][Cha]V[Orn]C[Dab]-NH2; thioether N-14), the IC50 is 348 nM.

In the case of `CC(C)C[C@H]1NC(=O)[C@H](CCCN)NC(=O)[C@H](CCCN)NC(=O)[C@H](Cc2ccc(-c3ccccc3)cc2)NC(=O)[C@H](Cc2ccc(C(=O)O)cc2)NC(=O)[C@H](Cc2cccc(C(F)(F)F)c2)NC(=O)[C@H](CC(N)=O)NC(=O)[C@H](Cc2ccc(C(=O)O)cc2)NC(=O)[C@H](CN2CCOCC2)NC(=O)CSC[C@@H](C(=O)N[C@@H](CCN)C(N)=O)NC(=O)[C@H](CCCN)NC(=O)[C@H](C(C)C)NC(=O)[C@H](CC2CCCCC2)NC(=O)[C@H](CCN)NC1=O` [Example 2728] ({CH2CO}-[Ala(morpholin-4-yl)][Phe(4-COOH)]N[Phe(3-CF3)][Phe(4-COOH)][Bip][Orn][Orn][dL][Dab][Cha]V[Orn]C[Dab]-NH2; thioether N-14), the IC50 was found to be 964 nM.

For `CC(C)C[C@H]1NC(=O)[C@H](CCCN)NC(=O)[C@H](Cc2ccc(C(=O)O)cc2)NC(=O)[C@H](Cc2ccc(-c3ccccc3)cc2)NC(=O)[C@H](Cc2ccc(OC3CCCCC3)cc2)NC(=O)[C@H](Cc2cccc(C(F)(F)F)c2)NC(=O)[C@H](CC(=O)O)NC(=O)[C@H](Cc2ccc(C(=O)O)cc2)NC(=O)[C@H](CN2CCOCC2)NC(=O)CSC[C@@H](C(=O)N[C@@H](CCN)C(N)=O)NC(=O)[C@H](CCC(=O)O)NC(=O)[C@H](C(C)C)NC(=O)[C@H](CC2CCCCC2)NC(=O)[C@H](CCN)NC1=O` [Example 2729] ({CH2CO}-[Ala(morpholin-4-yl)][Phe(4-COOH)]D[Phe(3-CF3)]Y(X1)[Bip][Phe(4-COOH)][Orn][dL][Dab][Cha]VEC[Dab]-NH2; thioether N-14), the IC50 is 2 nM.

Take `CC(C)C[C@H]1NC(=O)[C@H](CCCN)NC(=O)[C@H](Cc2ccc(C(=O)O)cc2)NC(=O)[C@H](Cc2ccc(-c3ccccc3)cc2)NC(=O)[C@H](Cc2ccc(Oc3ccccc3)cc2)NC(=O)[C@H](Cc2cccc(C(F)(F)F)c2)NC(=O)[C@H](CC(=O)O)NC(=O)[C@H](Cc2ccc(C(=O)O)cc2)NC(=O)[C@H](CN2CCOCC2)NC(=O)CSC[C@@H](C(=O)N[C@@H](CCN)C(N)=O)NC(=O)[C@H](CCC(=O)O)NC(=O)[C@H](C(C)C)NC(=O)[C@H](CC2CCCCC2)NC(=O)[C@H](CCN)NC1=O` [Example 2730] ({CH2CO}-[Ala(morpholin-4-yl)][Phe(4-COOH)]D[Phe(3-CF3)][Tyr(Ph)][Bip][Phe(4-COOH)][Orn][dL][Dab][Cha]VEC[Dab]-NH2; thioether N-14): the IC50 stood at 94 nM.

By IC50 is commonly meant the midpoint of a concentration-inhibition curve.

The record behind these values is patent US20250163104A1, “MACROCYCLIC IMMUNOMODULATORS” (priority 2021, published 2025).
